Where two headings read alike, the source gives them in different places.
What was measured:
[1] = molecular target: T1, Ba/F3 cells containing Ros1 wild-type protein (Homo sapiens, UniProt P08922, cells depend on it, form not given); assay: Ba/F3-Ros1 cell proliferation assay, wild-type Ros1; assay type: cell-based, murine; conditions: without IL-3
T1 construct: The background only speaks of 'a number of different unrelated proteins' and names SLC34A2-ROS1 for HCC78 cells
Procedure: (§1) Ba/F3-Ros1 Cell Proliferation Assay
(§2) This assay was carried out with Ba/F3 cells containing three different versions of Ros1: the wild-type protein, protein with a mutation at the gatekeeper residue (L2026M), and protein with a mutation identified in a tumor from a patient that became resistant to crizotinib (Xalkori®) treatment (G2032R). Compounds were solubilized in 100% DMSO (dimethyl sulfoxide) and sprayed into polystyrene, tissue culture treated 384-well plates. A 50 μl volume of cell culture medium (phenol red free RPMI-1640, 10% FBS (fetal bovine serum), 2 mM L-Glutamine) containing 20000 Ba/F3-Ros1 cells was added to each well and the plates were placed in an incubator at 37° C. and 5% CO2. After 24 hours, 10 μl of Alamar Blue solution (0.5 mM K3Fe(CN)6, 0.5 mM K4Fe(CN)6, 0.15 mM Resazurin and 100 mM Phosphate Buffer) was added to the wells, incubated for 4 hours at 37° C. and 5% CO2 before RFU's (Relative Fluorescence Units) (ex. 540 nm., em. 590 nm.) were measured in a fluorescence plate reader.

[2] = molecular target: T2, Ros1 enzyme (Homo sapiens, UniProt P08922); assay: Ros1 enzymatic assay; assay type: biochemical; conditions: Ros1 enzymatic assay; read-out: ROS1 pIC50 (converted)
T2 construct: 0.5 μg/ml Ros1 enzyme
Procedure: Compounds were spotted onto white 384-well Proxiplate plus plates (Perkin Elmer) to which 5 μl of enzyme mix (0.5 μg/ml Ros1 enzyme, 50 mM Tris-HCl pH7.5, 1 mM EGTA, 10 mM MgCl2, 0.01% Tween-20) and 5 μl of substrate mix (6 μg/ml IRS-Tide [American Peptide Company], 20 μM ATP, 13.33 μCi/ml ATP (adenosine 5′-triphosphate) P^33, 50 mM Tris-HCl pH7.5, 1 mM EGTA (ethylene glycol-bis(2-aminoethylether)-N,N,N′,N′-tetraacetic acid), 10 mM MgCl2, 0.01% Tween-20) were added. After incubation for 120 minutes at room temperature, 10 μl of stop reaction buffer (5 mM EDTA, 50 μM ATP, 0.1% BSA (bovine serum albumin), 0.1% Triton X-100, 50 mM Tris-HCl pH7.5, 1 mM EGTA, 10 mM MgCl2, 0.01% Tween-20) containing 2 mg/ml streptavidin coupled polystyrene imaging beads (Amersham Biosciences) was added and incubated for 15 minutes at room temperature. Plates were centrifuged for 3 minutes at 1500 rpm and signals detected in a LEADseeker imaging system (GE).

[3] = molecular target: Ba/F3 cells containing Ros1 with a mutation at the gatekeeper residue (L2026M) (Homo sapiens, UniProt P08922, L2026M, cells depend on it, form not given); assay: Ba/F3-Ros1 cell proliferation assay, L2026M gatekeeper mutant; assay type: cell-based, murine; conditions: without IL-3
Procedure: as §1, §2

[4] = tested on: Ba/F3 cells containing Ros1 wild-type protein + IL-3; assay: Ba/F3-Ros1 cell proliferation counter-screen, wild-type protein in the presence of 10 ng/ml murine IL-3; assay type: cell-based; conditions: Mus musculus, BaF3, 24 h, read-out: BaF3-ROS1 + IL3 pIC50 (converted)
Procedure: as §2
As a counter-screen the same experiment was performed for the wild-type protein in the presence of 10 ng/ml murine IL-3.

[5] = counter-screen, wild-type, 10 ng/ml murine IL-3

T1 sequence (P08922 whole entry, stated change not applied): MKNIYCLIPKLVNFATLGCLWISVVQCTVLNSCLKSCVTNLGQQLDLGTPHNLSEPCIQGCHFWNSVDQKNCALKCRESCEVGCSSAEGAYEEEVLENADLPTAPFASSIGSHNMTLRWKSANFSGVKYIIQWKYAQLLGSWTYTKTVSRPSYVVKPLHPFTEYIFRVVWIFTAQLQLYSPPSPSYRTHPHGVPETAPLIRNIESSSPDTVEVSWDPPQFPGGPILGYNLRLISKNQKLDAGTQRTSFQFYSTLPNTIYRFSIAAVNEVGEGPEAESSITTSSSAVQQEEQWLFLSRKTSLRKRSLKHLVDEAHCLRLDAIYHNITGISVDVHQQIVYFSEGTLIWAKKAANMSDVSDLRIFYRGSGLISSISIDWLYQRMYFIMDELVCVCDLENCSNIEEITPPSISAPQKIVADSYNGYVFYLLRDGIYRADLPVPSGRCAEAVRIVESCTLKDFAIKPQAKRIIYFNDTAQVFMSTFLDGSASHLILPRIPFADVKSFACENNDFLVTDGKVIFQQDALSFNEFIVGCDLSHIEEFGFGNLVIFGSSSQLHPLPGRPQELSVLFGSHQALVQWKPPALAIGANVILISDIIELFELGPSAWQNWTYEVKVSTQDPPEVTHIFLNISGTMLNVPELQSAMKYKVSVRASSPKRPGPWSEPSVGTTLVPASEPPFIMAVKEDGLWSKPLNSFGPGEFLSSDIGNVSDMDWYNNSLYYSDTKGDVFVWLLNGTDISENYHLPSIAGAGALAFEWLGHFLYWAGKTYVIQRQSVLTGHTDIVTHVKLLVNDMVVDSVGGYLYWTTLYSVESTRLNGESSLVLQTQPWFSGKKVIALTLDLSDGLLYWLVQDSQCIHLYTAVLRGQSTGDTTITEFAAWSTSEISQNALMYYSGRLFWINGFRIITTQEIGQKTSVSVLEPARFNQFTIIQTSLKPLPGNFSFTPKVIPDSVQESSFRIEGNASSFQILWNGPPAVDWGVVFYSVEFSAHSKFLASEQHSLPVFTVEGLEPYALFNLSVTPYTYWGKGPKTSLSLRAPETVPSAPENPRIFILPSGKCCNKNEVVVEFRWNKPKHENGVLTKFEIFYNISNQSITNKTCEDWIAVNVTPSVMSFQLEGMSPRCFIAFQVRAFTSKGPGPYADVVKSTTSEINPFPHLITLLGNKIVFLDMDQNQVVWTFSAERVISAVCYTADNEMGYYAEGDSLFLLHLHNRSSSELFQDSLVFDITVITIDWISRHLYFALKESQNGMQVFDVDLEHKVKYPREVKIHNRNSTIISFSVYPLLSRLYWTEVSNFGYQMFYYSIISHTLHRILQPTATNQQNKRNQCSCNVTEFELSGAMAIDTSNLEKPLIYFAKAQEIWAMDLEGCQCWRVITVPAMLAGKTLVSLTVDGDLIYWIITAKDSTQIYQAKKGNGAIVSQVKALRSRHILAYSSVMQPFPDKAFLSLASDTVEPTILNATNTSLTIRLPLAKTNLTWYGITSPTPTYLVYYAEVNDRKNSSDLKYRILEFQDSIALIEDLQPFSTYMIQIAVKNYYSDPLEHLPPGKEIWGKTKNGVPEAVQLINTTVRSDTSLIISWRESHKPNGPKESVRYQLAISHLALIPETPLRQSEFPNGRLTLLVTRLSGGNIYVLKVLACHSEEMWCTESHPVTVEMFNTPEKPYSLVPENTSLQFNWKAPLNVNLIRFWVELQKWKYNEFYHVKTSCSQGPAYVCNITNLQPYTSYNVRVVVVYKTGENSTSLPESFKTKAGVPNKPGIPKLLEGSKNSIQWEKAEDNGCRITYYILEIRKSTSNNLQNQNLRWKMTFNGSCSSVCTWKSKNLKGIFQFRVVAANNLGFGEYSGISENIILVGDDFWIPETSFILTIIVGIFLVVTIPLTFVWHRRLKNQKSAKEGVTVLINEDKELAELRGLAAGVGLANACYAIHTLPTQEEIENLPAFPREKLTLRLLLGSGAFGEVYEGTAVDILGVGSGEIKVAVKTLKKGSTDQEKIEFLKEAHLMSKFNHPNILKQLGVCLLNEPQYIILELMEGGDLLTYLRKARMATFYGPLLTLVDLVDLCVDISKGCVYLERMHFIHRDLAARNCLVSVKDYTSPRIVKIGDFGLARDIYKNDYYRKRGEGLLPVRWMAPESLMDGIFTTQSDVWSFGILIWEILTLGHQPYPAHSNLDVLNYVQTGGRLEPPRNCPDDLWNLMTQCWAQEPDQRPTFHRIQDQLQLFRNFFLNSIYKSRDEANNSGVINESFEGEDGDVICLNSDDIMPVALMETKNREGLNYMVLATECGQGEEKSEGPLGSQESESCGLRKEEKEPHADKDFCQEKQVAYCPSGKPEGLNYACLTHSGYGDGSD
T2 sequence (P08922 28-2347): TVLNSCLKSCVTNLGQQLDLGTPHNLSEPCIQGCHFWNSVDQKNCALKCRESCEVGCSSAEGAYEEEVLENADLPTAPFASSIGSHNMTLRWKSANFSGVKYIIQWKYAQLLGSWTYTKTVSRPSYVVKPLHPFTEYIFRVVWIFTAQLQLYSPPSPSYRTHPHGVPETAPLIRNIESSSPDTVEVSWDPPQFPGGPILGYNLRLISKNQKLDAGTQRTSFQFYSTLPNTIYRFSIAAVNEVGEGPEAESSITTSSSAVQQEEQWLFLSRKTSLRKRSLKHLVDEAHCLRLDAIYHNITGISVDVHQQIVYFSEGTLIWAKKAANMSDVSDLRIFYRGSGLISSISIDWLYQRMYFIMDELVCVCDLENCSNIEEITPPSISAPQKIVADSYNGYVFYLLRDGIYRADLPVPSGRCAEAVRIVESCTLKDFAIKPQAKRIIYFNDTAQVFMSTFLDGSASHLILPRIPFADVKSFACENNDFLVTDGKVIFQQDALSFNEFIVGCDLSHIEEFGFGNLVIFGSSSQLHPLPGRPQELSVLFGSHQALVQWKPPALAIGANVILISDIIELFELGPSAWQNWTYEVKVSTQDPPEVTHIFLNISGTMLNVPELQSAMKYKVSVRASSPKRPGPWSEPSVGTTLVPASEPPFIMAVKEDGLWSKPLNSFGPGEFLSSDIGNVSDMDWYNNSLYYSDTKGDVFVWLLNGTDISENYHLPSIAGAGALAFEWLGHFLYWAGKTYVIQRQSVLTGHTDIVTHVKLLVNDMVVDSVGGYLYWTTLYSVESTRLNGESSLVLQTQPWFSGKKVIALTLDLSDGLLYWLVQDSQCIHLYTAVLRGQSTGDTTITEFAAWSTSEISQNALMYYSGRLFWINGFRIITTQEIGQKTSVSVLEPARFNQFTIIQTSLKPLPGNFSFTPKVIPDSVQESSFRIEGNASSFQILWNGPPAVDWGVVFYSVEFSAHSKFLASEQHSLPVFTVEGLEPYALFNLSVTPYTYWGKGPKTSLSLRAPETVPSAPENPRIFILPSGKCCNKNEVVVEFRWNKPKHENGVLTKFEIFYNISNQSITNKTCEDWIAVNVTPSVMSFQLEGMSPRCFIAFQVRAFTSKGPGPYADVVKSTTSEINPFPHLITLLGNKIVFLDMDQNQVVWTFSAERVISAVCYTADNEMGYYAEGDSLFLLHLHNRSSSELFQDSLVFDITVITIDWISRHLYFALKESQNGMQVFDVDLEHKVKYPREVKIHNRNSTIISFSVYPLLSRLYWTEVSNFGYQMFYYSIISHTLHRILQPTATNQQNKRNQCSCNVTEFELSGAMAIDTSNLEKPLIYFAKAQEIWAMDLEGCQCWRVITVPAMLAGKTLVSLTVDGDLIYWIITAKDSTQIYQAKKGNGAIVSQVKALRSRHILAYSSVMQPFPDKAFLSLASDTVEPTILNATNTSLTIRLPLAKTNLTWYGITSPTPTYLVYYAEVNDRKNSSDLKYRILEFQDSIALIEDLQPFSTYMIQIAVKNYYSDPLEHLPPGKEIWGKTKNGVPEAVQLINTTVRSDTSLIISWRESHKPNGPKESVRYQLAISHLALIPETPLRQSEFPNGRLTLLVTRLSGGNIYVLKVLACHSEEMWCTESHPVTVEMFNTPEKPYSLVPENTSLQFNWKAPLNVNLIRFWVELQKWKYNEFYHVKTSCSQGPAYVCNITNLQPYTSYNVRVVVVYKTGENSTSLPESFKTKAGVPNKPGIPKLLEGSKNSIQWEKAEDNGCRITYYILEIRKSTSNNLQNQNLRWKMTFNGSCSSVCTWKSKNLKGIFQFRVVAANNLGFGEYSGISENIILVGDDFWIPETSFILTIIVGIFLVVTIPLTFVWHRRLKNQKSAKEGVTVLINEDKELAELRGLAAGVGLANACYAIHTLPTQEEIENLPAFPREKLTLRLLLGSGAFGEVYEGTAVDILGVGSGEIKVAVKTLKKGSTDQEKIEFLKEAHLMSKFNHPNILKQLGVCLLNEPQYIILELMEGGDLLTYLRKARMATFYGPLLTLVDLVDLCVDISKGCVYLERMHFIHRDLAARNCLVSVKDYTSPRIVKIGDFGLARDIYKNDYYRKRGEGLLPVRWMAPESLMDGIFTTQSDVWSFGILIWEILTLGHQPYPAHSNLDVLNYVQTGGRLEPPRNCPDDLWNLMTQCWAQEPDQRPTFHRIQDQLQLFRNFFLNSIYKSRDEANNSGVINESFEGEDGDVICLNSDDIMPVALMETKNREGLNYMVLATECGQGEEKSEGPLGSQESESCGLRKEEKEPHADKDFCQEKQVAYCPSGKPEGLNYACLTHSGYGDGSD
Ba/F3 cells containing Ros1 with a mutation at the gatekeeper residue (L2026M), sequence (P08922 whole entry L2026M, form open): as the sequence (P08922 whole entry, stated change not applied) above, with L2026M counted along it

| SMILES | BaF3-ROS1-IL3 pIC50 [1] | IC50 [2] | Ba/F3 Ros1 L2026M (-IL-3) pIC50 [3] | CC50 [4] | CC50 [4, 5] | melting point |
| --- | --- | --- | --- | --- | --- | --- |
| CC(C)c1ccc(COc2ccc(-c3c(-c4ccncc4)nn4c3C(=O)NCC4)c(F)c2)cc1CCO [Compound 204] | 7.9 | 6.31 nM | 7.8 | > 10 µM |  |  |
| CC1Cn2nc(-c3ccncc3)c(-c3ccc(OCc4ccc(C5CC5)cc4)cc3)c2CN1 (centres unmarked) [Compound 190] | 6.1 | 631 nM |  |  | > 10 µM |  |
| O=C1NCCn2nc(-c3ccncc3)c(-c3ccc(OCc4ccccc4)cc3)c21 [Compound 130] | 5.8 | 3160 nM |  | > 10 µM |  | 260 °C |
| CC(C)Oc1ccc(COc2ccc(-c3c(-c4ccncc4)nn4c3C(=O)NCC4)cc2)cc1 [Compound 114] | 6.4 | 501 nM |  | > 10 µM |  | 252 °C |
| CC(C)c1ccc(C2CNc3cc(-c4c(-c5ccncc5)nn5c4C(=O)NCC5)cnc3O2)cc1 (centres unmarked) [Compound 223] | 6.5 | 398 nM |  | > 10 µM |  |  |
| CC(C)c1ccc(COc2cc(F)c(-c3c(-c4ccncc4)nn4c3C(=O)NCC4)c(F)c2)cc1 [Compound 17] | 6.8 | 501 nM |  | > 10 µM |  | 235 °C |
| CC(C)c1ccc(COc2ccc(-c3c(-c4ccncc4)nn4c3C(=O)N(CCC#N)CC4)cc2)cc1 [Compound 57] | 7.7 | 25.1 nM |  | > 10 µM |  | 158 °C |
| CC(C)c1ccc(COc2ccc(-c3c(-c4ccncc4)nn4c3C(=O)N(C)CC4)cc2)cc1CCO [Compound 82] | 7.6 | 10 nM | 7.3 | > 10 µM |  |  |
| CC(C)c1ccc(COc2ccc(-c3c(-c4ccncn4)nn4c3CNCC4)cc2)cc1 [Compound 219] | 6.0 | 1260 nM |  |  | > 10 µM | 150 °C |
| CC(C)c1ccc(COc2ccc(-c3c(-c4ccncc4)nn4c3CNC(=O)C4)cc2)cc1 [Compound 237] | 6.8 | 794 nM |  | > 10 µM |  | 281 °C |
| CC(C)Oc1cc(-c2c(-c3ccncc3)nn3c2C(=O)NCC3)ccc1OCc1ccc(C(C)C)cc1 [Compound 37] | 5.4 | 2510 nM |  | > 10 µM |  | 206 °C |
| CC(C)c1ccc(COc2ccc(-c3c(-c4ccncc4)nn4c3CN(CCN)CC4)cc2)cc1 [Compound 210] | 6.3 | 63.1 nM |  |  | 6.31 µM | 197 °C |
| CC(C)c1ccc(COc2ccc(-c3c(-c4ccnc(N)n4)nn4c3C(=O)NCC4)cc2)cc1 [Compound 13] | 7.5 | 20 nM |  | > 10 µM |  |  |
| CC(C)c1ccc(COC2CCN(c3c(-c4ccncc4)nn4c3C(=O)NCC4)CC2)cc1 [Compound 198] | 6.6 | 251 nM |  | > 10 µM |  |  |
| CC(C)c1ccc(C2CNc3cc(-c4c(-c5ccncc5)nn5c4C(=O)NCC5)ccc3O2)cc1 (centres unmarked) [Compound 224] | 6.7 | 398 nM |  |  | > 10 µM |  |
| O=C1NCCn2nc(-c3ccncn3)c(-c3ccc(OCc4ccc(C5CC5)cc4)cc3)c21 [Compound 166] | 6.9 | 63.1 nM |  |  | > 10 µM | 268 °C |
| CC(C)c1ccc(COc2ccc(-c3c(-c4ncnc5[nH]ccc45)nn4c3C(=O)NCC4)cc2)cc1 [Compound 222] | 7.0 | 200 nM |  | > 10 µM |  | 238 °C |
| CC(C)c1ccc(C2CNc3cc(-c4c(-c5ccncc5)nn5c4C(=O)NCC5)ccc3O2)cc1 (centres unmarked) [Compound 225] | 6.7 | 316 nM |  |  |  |  |

From patent publication US10280170B2, “Substituted 4,5,6,7-tetrahydro-pyrazolo[1,5-a]pyrazine derivatives and 5,6,7,8-tetrahydro-4H-pyrazolo[1,5-a][1,4]diazepine derivatives as Ros1 inhibitors” (Janssen Pharmaceutica NV, priority 2014, dated 2019)
